Legend:
Type in all cases: cell-based
[1] = tested on: primary fibroblasts (including lung, dermal), HFL-1, 3T3 and CHO cells expressing LPA1R; assay: LPA1 migration assay (Oris cell migration); conditions: inhibition of cell migration in response to chemoattractant (LPA, serum)
Description: Migration of primary fibroblasts (including lung, dermal), HFL-1, 3T3 and CHO cells expressing LPA1R were monitored using the Oris™ assay (Platypus Technologies, Madison, Wis.). These cells were dye (Cell Tracker Green™) loaded and serum starved for 12-24 hrs. In response to chemoattractants such as LPA and serum, the cells migrated inward in to the exclusion (detection) zone. After fixing, fluorescent cells in the detection zone were counted using a high content reader. The ability of LPA1 antagonists to inhibit cell migration is quantified by plotting cell number vs. compound concentration and curve fitting the resulting dose-response curve to a 4 parameter logistic function.

Human LPA1 [2] = molecular target: T1, Human LPA1 (Homo sapiens, UniProt Q92633); assay: LPA1 calcium flux assay; parameters: the full-length cDNA for human LPA1 is obtained by PCR of the reverse transcription reaction; expressed in transfected cells; conditions: human LPA1 expressing CHO cells, stimulated with 10 nM LPA; read-out: Ca Flux LPA1 IC50
Procedure: Establishment of a CHO Cell Line Stably Expressing Human LPA1
A 1.1 kb cDNA encoding the human LPA1 receptor is cloned from human lung. Human lung RNA (Clontech Laboratories, Inc. USA) is reverse transcribed using the RETROscript kit (Ambion, Inc.) and the full-length cDNA for human LPA1 is obtained by PCR of the reverse transcription reaction. The nucleotide sequence of the cloned human LPA1 is determined by sequencing and is confirmed to be identical to the published human LPA1 sequence (An et al. Biochem. Biophys. Res. Commun. 231:619 (1997). The cDNA is cloned into the pCDNA5 pcDNA5/FRT expression plasmid and is transfected in CHO cells using lipofectamine 2000 (Invitrogen Corp., USA). Clones stably expressing human LPA1 are selected using hygromycin and identified as cells that show Ca-influx in response to LPA.
LPA1 and LPA3 Calcium Flux Assays
Human LPA1 or LPA3 expressing CHO cells were seeded at 20,000-45,000 cells per well in a 96-well poly-D-lysine coated plate one or two days before the assay. Prior to the assay, the cells were washed once with PBS and then cultured in serum-free media overnight. On the day of the assay, a calcium indicator dye (Calcium 4, Molecular Devices) in assay buffer (HBSS with Ca^2+ and Mg^2+ and containing 20 mM Hepes and 0.3% fatty-acid free human serum albumin) was added to each well and incubation continued for 1 hour at 37° C. 10 μl of test compounds in 2.5% DMSO were added to the cells and incubation continued at room temperature for 30 minutes. Cells were then stimulated by the addition of 10 nM LPA and intracellular Ca^2+ measured using the Flexstation 3 (Molecular Devices). IC50, were determined using Graphpad prism analysis of drug titration curves.

Human LPA1 [3] = molecular target: T1, Human LPA1; assay: Beta-Arrestin based assay for human LPA1R antagonists (PathHunter); conditions: CHO cells expressing ProLink tagged human LPA1R; antagonist mode, 0.5 micromolar LPA
Procedure: Beta-Arrestin Based Assays for Human LPA1R Antagonists and Agonists
A CHO cell line stably expressing the ProLink™ tagged human LPA1R was obtained from DiscoverX Inc, Fremont, Calif. In this system, β-Arrestin was fused to an N-terminal deletion mutant of β-galactosidase (termed the enzyme acceptor or EA), the human LPA1R was fused to a smaller (42 amino acids) weakly complementing fragment termed ProLink™. […] Cell handling and assays were performed according to protocols specified in the PathHunter® assays kits (DiscoverX, Fremont, Calif.). Assays were performed in quadruplicate in white 384 well plates. End point luminescence data were plotted and fit to a 4 parameter logistic function to obtain IC50 values. For antagonist assays, an […] concentration of agonist (LPA) equal to 0.5 micromolar was used.

T1 sequence (Q92633 whole entry): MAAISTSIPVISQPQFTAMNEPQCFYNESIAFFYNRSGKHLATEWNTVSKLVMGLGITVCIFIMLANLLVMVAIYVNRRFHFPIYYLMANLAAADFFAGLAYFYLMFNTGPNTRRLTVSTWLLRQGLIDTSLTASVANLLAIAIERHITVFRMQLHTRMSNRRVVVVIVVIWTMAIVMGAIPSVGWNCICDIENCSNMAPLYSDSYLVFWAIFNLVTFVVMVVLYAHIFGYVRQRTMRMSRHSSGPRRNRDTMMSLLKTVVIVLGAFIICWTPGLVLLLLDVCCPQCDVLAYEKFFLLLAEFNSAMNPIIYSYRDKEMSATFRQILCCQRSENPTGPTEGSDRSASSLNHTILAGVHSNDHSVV

Row | SMILES | IC50 (Human LPA1 [2]) [nM] | EC50 (Human LPA1 [3]) [nM] | EC50 [1] [nM]
1 | Cc1nsc(-c2ccc(-c3cc4sc(C5(C(=O)O)CC5)cc4s3)cc2)c1NC(=O)O[C@H](C)c1ccccc1 [IT046] | > 500 | < 50 | 50 to 500
2 | Cc1noc(C#Cc2cc3sc(C4(C(=O)O)CC4)cc3s2)c1NC(=O)OCc1ccccc1 [IT048] | < 50 | < 50 | 50 to 500
3 | C[C@@H](OC(=O)Nc1c(-c2ccc(-c3cc4sc(C5(C(=O)O)CC5)cc4s3)cc2)nnn1C)c1ccccc1 [IT050] | 50 to 500 | < 50 | 50 to 500
4 | C[C@@H](OC(=O)Nc1c(-c2ccc(-c3cc4sc(C5(C(=O)O)CC5)cc4s3)cc2)cnn1C)c1ccccc1 [IT056] | 50 to 500 | < 50 | 50 to 500
5 | C[C@@H](OC(=O)Nc1c(C#Cc2ccc3cc(C4(C(=O)O)CC4)ccc3c2)nnn1C)c1ccccc1 [IT064] | < 50 | < 50 | 50 to 500
6 | Cc1nnn(-c2cc(F)c(-c3cc4sc(C5(C(=O)O)CC5)cc4s3)cc2F)c1NC(=O)O[C@H](C)c1ccccc1 [IT067] | 50 to 500 | 50 to 500 | > 500
7 | C[C@@H](OC(=O)Nc1c(C#Cc2cc3sc(C4(C(=O)O)CC4)cc3s2)nnn1C)c1ccccc1 [IT069] | < 50 | < 50 | 50 to 500
8 | C[C@@H](OC(=O)Nc1c(-c2cc(F)c(-c3cc4sc(C5(C(=O)O)CC5)cc4s3)cc2F)nnn1C)c1ccccc1 [IT071] | 50 to 500 | < 50 | 50 to 500
9 | C[C@@H](OC(=O)Nc1c(CCc2cc3sc(C4(C(=O)O)CC4)cc3s2)cnn1C)c1ccccc1 [IT099] | > 500 | 50 to 500 | > 500

Second part, led by results:

Row | IC50 (Human LPA1 [2]) [nM] | EC50 (Human LPA1 [3]) [nM] | SMILES | EC50 [1] [nM]
10 | 50 to 500 | > 500 | C[C@@H](OC(=O)Nc1c(-c2ccc(-c3ccc(C4(C(=O)O)CC4)cc3)cc2)nc2cccnn12)c1ccccc1 [IT041] | > 500
11 | 50 to 500 | < 50 | C[C@@H](OC(=O)Nc1c(-c2ccc(-c3ccc(C4(C(=O)O)CC4)cc3)cc2)nc2ncccn12)c1ccccc1 [IT043] | 50 to 500
12 | 50 to 500 | < 50 | Cc1noc(C#Cc2cc3sc(C4(C(=O)O)CC4)cc3s2)c1NC(=O)O[C@H](C)c1ccccc1Cl [IT047] | < 50
13 | 50 to 500 | 50 to 500 | Cc1nnn(-c2ccc(-c3cc4sc(C5(C(=O)O)CC5)cc4s3)cc2)c1NC(=O)O[C@H](C)c1ccccc1 [IT051] | 50 to 500
14 | < 50 | < 50 | C[C@@H](OC(=O)Nc1c(-c2cc(F)c(-c3ccc(C4(C(=O)O)CC4)cc3)cc2F)nn2ncccc12)c1ccccc1 [IT061] | 50 to 500
15 | 50 to 500 | 50 to 500 | C[C@@H](OC(=O)Nc1c(C2CCC(c3ccc(C4(C(=O)O)CC4)cc3)CC2)cnn1C)c1ccccc1 (stereo partly drawn) [IT066] | > 500
16 | < 50 | < 50 | CCn1ncc(C#Cc2cc3sc(C4(C(=O)O)CC4)cc3s2)c1NC(=O)O[C@H](C)c1ccccc1 [IT070] | < 50
17 | < 50 | 50 to 500 | C[C@@H](OC(=O)Nc1c(C#Cc2cc3sc(C4(C(=O)O)CC4)cc3s2)nn2ccccc12)c1ccccc1 [IT073] | 50 to 500

Reference: patent publication US20140200215A1, “LYSOPHOSPHATIDIC ACID RECEPTOR ANTAGONISTS” (INTERMUNE, INC., priority 2013, published 2014)
